# Laboratory results as given in patent US6610853B1, “N-(phenylsulfonyl)picolinamide derivatives, process for producing the same, and herbicide” (Kureha Kagaku Kogyo K.K., priority 2000, dated 2003).
# Assays:
# Assay in all cases: Test on herbicidal activity by foliar application
# Format in all cases: in vivo
# Conditions in all cases: foliar spray, 1 kg/ha, plants at 1-2 leaf stage in pots, evaluated 14 days after spraying
# Convolvulus arvensis = system: Convolvulus arvensis
# Method in brief: (§1)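 Post-emergence test: dissolved wettable-powder formulation applied at 1 kg/ha to foliage of potted plants (1-2 leaves); herbicidal effect graded 14 days on, grades 1-5 covering <30% to ≥90% inhibition.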
# Galium aparine = system: Galium aparine
# Method in brief: as §1
# Solanum nigrum = system: Solanum nigrum
# Method in brief: as §1
# Setaria viridis = system: Setaria viridis
# Method in brief: as §1
# Veronica hederaefolia = system: Veronica hederaefolia
# Method in brief: as §1
# Bidens pilosa = system: Bidens pilosa
# Method in brief: as §1
# Stellaria media = system: Stellaria media
# Method in brief: as §1
# Sinapis arvensis = system: Sinapis arvensis
# Method in brief: as §1
# Abutilon theophrasti = system: Abutilon theophrasti
# Method in brief: as §1
# Matricaria chamomilla = system: Matricaria chamomilla
# Method in brief: as §1
# Amaranthus retroflexus = system: Amaranthus retroflexus
# Method in brief: as §1
SMILES,"Herbicidal activity, Convolvulus arvensis (Convolvulus arvensis)","Herbicidal activity, Galium aparine (Galium aparine)","Herbicidal activity, Solanum nigrum (Solanum nigrum)","Herbicidal activity, Setaria viridis (Setaria viridis)","Herbicidal activity, Veronica hederaefolia (Veronica hederaefolia)","Herbicidal activity, Bidens pilosa (Bidens pilosa)","Herbicidal activity, Stellaria media (Stellaria media)","Herbicidal activity, Sinapis arvensis (Sinapis arvensis)","Herbicidal activity, Abutilon theophrasti (Abutilon theophrasti)","Herbicidal activity, Matricaria chamomilla (Matricaria chamomilla)","Herbicidal activity, Amaranthus retroflexus (Amaranthus retroflexus)"
"COc1ccc(C(=O)NS(=O)(=O)c2ccccc2S(=O)(=O)N(C)OC)nc1Br [Compound I-830, 6-Bromo-5-methoxy-N-[[2-(N-methyl-N-methoxyaminosulfonyl]phenyl]sulfonyl]-2-pyridinecarboxamide]",5 (90% or more inhibition),5 (90% or more inhibition),5 (90% or more inhibition),4 (70% or more-90% inhibition),5 (90% or more inhibition),5 (90% or more inhibition),5 (90% or more inhibition),5 (90% or more inhibition),5 (90% or more inhibition),5 (90% or more inhibition),5 (90% or more inhibition)
"O=C(NS(=O)(=O)c1ccccc1OC(F)(F)F)c1cccc(Cl)n1 [Compound I-771, N-[[2-Trifluoromethoxyphenyl]sulfonyl]-6-chloro-2-pyridinecarboxamide]",4 (70% or more-90% inhibition),5 (90% or more inhibition),5 (90% or more inhibition),1 (less than 30% inhibition),5 (90% or more inhibition),5 (90% or more inhibition),5 (90% or more inhibition),5 (90% or more inhibition),5 (90% or more inhibition),5 (90% or more inhibition),5 (90% or more inhibition)
"COc1ccc(C(=O)NS(=O)(=O)c2ccccc2OC(F)(F)F)nc1OC [Compound I-799, N-[(2-Trifluoromethoxyphenyl)sulfonyl]-5,6-dimethoxy-2-pyridinecarboxamide]",3 (50% or more-70% inhibition),4 (70% or more-90% inhibition),4 (70% or more-90% inhibition),3 (50% or more-70% inhibition),4 (70% or more-90% inhibition),4 (70% or more-90% inhibition),5 (90% or more inhibition),5 (90% or more inhibition),5 (90% or more inhibition),5 (90% or more inhibition),3 (50% or more-70% inhibition)
"COc1ccc(C(=O)NS(=O)(=O)c2ccccc2C(F)(F)F)nc1 [Compound I-054, N-[(2-Trifluoromethylphenyl)sulfonyl]-5-methoxy-2-pyridinecarboxamide]",3 (50% or more-70% inhibition),4 (70% or more-90% inhibition),4 (70% or more-90% inhibition),5 (90% or more inhibition),4 (70% or more-90% inhibition),5 (90% or more inhibition),5 (90% or more inhibition),5 (90% or more inhibition),2 (30% or more-50% inhibition),5 (90% or more inhibition),3 (50% or more-70% inhibition)
"COC(=O)c1ccccc1S(=O)(=O)NC(=O)c1cccc(Cl)n1 [Compound I-231, 2-[[[(6-Chloropyridin-2-yl)carbonyl]amino]-sulfonyl]benzoic Acid Methyl Ester]",4 (70% or more-90% inhibition),5 (90% or more inhibition),5 (90% or more inhibition),5 (90% or more inhibition),5 (90% or more inhibition),5 (90% or more inhibition),5 (90% or more inhibition),5 (90% or more inhibition),5 (90% or more inhibition),5 (90% or more inhibition),5 (90% or more inhibition)
"COC(=O)c1ccccc1S(=O)(=O)NC(=O)c1cc(OC)cc(C)n1 [Compound I-254, 2-[[[(4-Methoxy-6-methylpyridin-2-yl)carbonyl]-amino]sulfonyl]benzoic Acid Methyl Ester]",3 (50% or more-70% inhibition),5 (90% or more inhibition),5 (90% or more inhibition),4 (70% or more-90% inhibition),5 (90% or more inhibition),5 (90% or more inhibition),5 (90% or more inhibition),5 (90% or more inhibition),5 (90% or more inhibition),3 (50% or more-70% inhibition),5 (90% or more inhibition)
"COc1cc(Cl)nc(C(=O)NS(=O)(=O)c2ccccc2S(=O)(=O)N(C)OC)c1 [Compound I-838, 6-Chloro-4-methoxy-N-[[2-(N-methyl-N-methoxyamino)sulfonyl]phenylsulfonyl]-2-pyridinecarboxamide]",5 (90% or more inhibition),5 (90% or more inhibition),5 (90% or more inhibition),5 (90% or more inhibition),4 (70% or more-90% inhibition),5 (90% or more inhibition),4 (70% or more-90% inhibition),5 (90% or more inhibition),5 (90% or more inhibition),5 (90% or more inhibition),4 (70% or more-90% inhibition)
"CN(C)S(=O)(=O)c1ccccc1S(=O)(=O)NC(=O)c1cccc(Cl)n1 [Compound I-861, N-[[2-(N,N-Dimethylaminosulfonyl)phenyl]-sulfonyl)-6-chloro-2-pirydinecarboxamide]",5 (90% or more inhibition),5 (90% or more inhibition),5 (90% or more inhibition),5 (90% or more inhibition),4 (70% or more-90% inhibition),5 (90% or more inhibition),5 (90% or more inhibition),5 (90% or more inhibition),5 (90% or more inhibition),5 (90% or more inhibition),5 (90% or more inhibition)
